# Results published in ChEMBL document CHEMBL1201862, “PubChem BioAssay data set” (2004).
#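 Each compound was tested at five concentrations against cells in 96-well plates for 48 hours. Here, GI50 denotes the concentration required for 50% inhibition of growth.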 Active and inactive are the calls of the source. Rule as the data show it: active = GI50 up to about 1.1 µM and inactive = higher.
# Key:
# Assay in all cases: growth of human tumour cells (NCI), 48 h
# 786-0 = system: 786-0
# A498 = system: A498
# A549 = system: A549
# ACHN = system: ACHN
# BT-549 = system: BT-549
# CAKI-1 = system: CAKI-1
# CCRF-CEM = system: CCRF-CEM
# COLO 205 = system: COLO 205
# DU-145 = system: DU-145
# EKVX = system: EKVX
# HCC 2998 = system: HCC 2998
# HCT-116 = system: HCT-116
# HCT-15 = system: HCT-15
# HOP-62 = system: HOP-62
# HT-29 = system: HT-29
# IGROV-1 = system: IGROV-1
# K562 = system: K562
# KM12 = system: KM12
# LOX IMVI = system: LOX IMVI
# M14 = system: M14
# MCF7 = system: MCF7
# MDA-MB-231 = system: MDA-MB-231
# MDA-MB-435 = system: MDA-MB-435
# MDA-N = system: MDA-N
# MOLT-4 = system: MOLT-4
# Malme-3M = system: Malme-3M
# NCI-H226 = system: NCI-H226
# NCI-H23 = system: NCI-H23
# NCI-H460 = system: NCI-H460
# NCI-H522 = system: NCI-H522
# NCI/ADR-RES = system: NCI/ADR-RES
# OVCAR-4 = system: OVCAR-4
# OVCAR-5 = system: OVCAR-5
# OVCAR-8 = system: OVCAR-8
# PC-3 = system: PC-3
# RPMI-8226 = system: RPMI-8226
# RXF 393 = system: RXF 393
# SF-268 = system: SF-268
# SF-295 = system: SF-295
# SF-539 = system: SF-539
# SK-MEL-28 = system: SK-MEL-28
# SK-MEL-2 = system: SK-MEL-2
# SK-MEL-5 = system: SK-MEL-5
# SK-OV-3 = system: SK-OV-3
# SN12C = system: SN12C
# SNB-19 = system: SNB-19
# SNB-75 = system: SNB-75
# SR = system: SR
# SW-620 = system: SW-620
# T47D = system: T47D
# TK-10 = system: TK-10
# U-251 = system: U-251
# UACC-257 = system: UACC-257
# UACC-62 = system: UACC-62
# UO-31 = system: UO-31
# HOP-92 = system: HOP-92
# OVCAR-3 = system: OVCAR-3
structure (smiles),measurement,setting,value
C[C@@H]1CC[C@@H]2[C@@H](C1)O[C@@H]([C@@H](C)OCc1ccccc1)SC2(C)C,GI50,786-0,19.2 µM (inactive)
same,GI50,A498,17.3 µM (inactive)
same,GI50,A549,29.9 µM (inactive)
same,GI50,ACHN,17.3 µM (inactive)
same,GI50,BT-549,22.1 µM (inactive)
same,GI50,CAKI-1,14.9 µM (inactive)
same,GI50,CCRF-CEM,16.6 µM (inactive)
same,GI50,COLO 205,17.6 µM (inactive)
same,GI50,DU-145,30.8 µM (inactive)
same,GI50,EKVX,31.8 µM (inactive)
same,GI50,HCC 2998,17.9 µM (inactive)
same,GI50,HCT-116,18.3 µM (inactive)
same,GI50,HCT-15,19.5 µM
same,GI50,HOP-62,16.4 µM (inactive)
same,GI50,HT-29,18.8 µM (inactive)
same,GI50,IGROV-1,23.1 µM (inactive)
same,GI50,K562,18.1 µM (inactive)
same,GI50,KM12,18.7 µM (inactive)
same,GI50,LOX IMVI,21.2 µM (inactive)
same,GI50,M14,19.3 µM (inactive)
same,GI50,MCF7,18.7 µM (inactive)
same,GI50,MDA-MB-231,21.5 µM (inactive)
same,GI50,MDA-MB-435,16.9 µM (inactive)
same,GI50,MDA-N,18.4 µM (inactive)
same,GI50,MOLT-4,16.1 µM (inactive)
same,GI50,Malme-3M,17.2 µM (inactive)
same,GI50,NCI-H226,19.4 µM (inactive)
same,GI50,NCI-H23,21.7 µM (inactive)
same,GI50,NCI-H460,20.9 µM (inactive)
same,GI50,NCI-H522,14.8 µM (inactive)
same,GI50,NCI/ADR-RES,20.1 µM (inactive)
same,GI50,OVCAR-4,20.1 µM (inactive)
same,GI50,OVCAR-5,18.3 µM (inactive)
same,GI50,OVCAR-8,22.4 µM (inactive)
same,GI50,PC-3,19.5 µM (inactive)
same,GI50,RPMI-8226,16.5 µM (inactive)
same,GI50,RXF 393,15.4 µM (inactive)
same,GI50,SF-268,23 µM (inactive)
same,GI50,SF-295,16.6 µM (inactive)
same,GI50,SF-539,17.2 µM (inactive)
same,GI50,SK-MEL-28,24.7 µM (inactive)
same,GI50,SK-MEL-2,15.8 µM (inactive)
same,GI50,SK-MEL-5,16.3 µM (inactive)
same,GI50,SK-OV-3,24.9 µM (inactive)
same,GI50,SN12C,17.2 µM (inactive)
same,GI50,SNB-19,19 µM (inactive)
same,GI50,SNB-75,16.2 µM (inactive)
same,GI50,SR,17.5 µM (inactive)
same,GI50,SW-620,18.4 µM (inactive)
same,GI50,T47D,14.7 µM (inactive)
same,GI50,TK-10,21.7 µM (inactive)
same,GI50,U-251,17.5 µM (inactive)
same,GI50,UACC-257,19.4 µM (inactive)
same,GI50,UACC-62,19.3 µM (inactive)
same,GI50,UO-31,16.4 µM (inactive)
CCCNC(=S)N/C=C1/C(=O)C=C(C)OC1=O,GI50,786-0,> 100 µM (inactive)
same,GI50,A549,> 100 µM (inactive)
same,GI50,ACHN,> 100 µM (inactive)
same,GI50,BT-549,> 100 µM (inactive)
same,GI50,CAKI-1,> 100 µM (inactive)
same,GI50,COLO 205,> 100 µM (inactive)
same,GI50,DU-145,> 100 µM (inactive)
same,GI50,EKVX,> 100 µM (inactive)
same,GI50,HCC 2998,> 100 µM (inactive)
same,GI50,HCT-116,> 100 µM (inactive)
same,GI50,HCT-15,> 100 µM
same,GI50,HOP-62,> 100 µM (inactive)
same,GI50,HOP-92,> 100 µM (inactive)
same,GI50,HT-29,> 100 µM (inactive)
same,GI50,IGROV-1,> 100 µM (inactive)
same,GI50,KM12,> 100 µM (inactive)
same,GI50,LOX IMVI,> 100 µM (inactive)
same,GI50,M14,> 100 µM (inactive)
same,GI50,MCF7,> 100 µM (inactive)
same,GI50,MDA-MB-231,> 100 µM (inactive)
same,GI50,MDA-MB-435,> 100 µM (inactive)
same,GI50,MDA-N,> 100 µM (inactive)
same,GI50,MOLT-4,> 100 µM (inactive)
same,GI50,NCI-H226,> 100 µM (inactive)
same,GI50,NCI-H23,> 100 µM (inactive)
same,GI50,NCI-H460,> 100 µM (inactive)
same,GI50,NCI/ADR-RES,> 100 µM (inactive)
same,GI50,OVCAR-3,> 100 µM (inactive)
same,GI50,OVCAR-4,> 100 µM (inactive)
same,GI50,OVCAR-5,> 100 µM (inactive)
same,GI50,OVCAR-8,> 100 µM (inactive)
same,GI50,PC-3,> 100 µM (inactive)
same,GI50,SF-295,> 100 µM (inactive)
same,GI50,SF-539,> 100 µM (inactive)
same,GI50,SK-MEL-28,> 100 µM (inactive)
same,GI50,SK-MEL-2,> 100 µM (inactive)
same,GI50,SK-MEL-5,> 100 µM (inactive)
same,GI50,SK-OV-3,> 100 µM (inactive)
same,GI50,SN12C,> 100 µM (inactive)
same,GI50,SNB-19,> 100 µM (inactive)
same,GI50,SNB-75,> 100 µM (inactive)
same,GI50,SW-620,> 100 µM (inactive)
same,GI50,T47D,> 100 µM (inactive)
same,GI50,TK-10,26.7 µM (inactive)
same,GI50,U-251,> 100 µM (inactive)
same,GI50,UACC-257,> 100 µM (inactive)
same,GI50,UACC-62,> 100 µM (inactive)
same,GI50,UO-31,> 100 µM (inactive)
